In patent US20240116985A1, “STAPLED PEPTIDES AND METHODS THEREOF” (priority 2020, published 2024):
In brackets after ≈: the same amount, converted by molar mass. Read-outs that look alike come from different tables or passages of the source.

Columns and labels:
[1] = CHI Log D procedure; assay type: physicochemical; settings: pH 7.4, CHI Log D
[2] = target: T1, full-length beta-Catenin (Uniprot ID P35222) (Homo sapiens, UniProt P35222); assay: Fluorescence polarization IC50 (beta-catenin / 5FAM-TCF4 10-53 competition); assay type: binding; settings: read-out: beta-Catenin FP IC50
T1 construct: 10 nM full-length beta-Catenin (Uniprot ID P35222)
T1 sequence (P35222 1-781): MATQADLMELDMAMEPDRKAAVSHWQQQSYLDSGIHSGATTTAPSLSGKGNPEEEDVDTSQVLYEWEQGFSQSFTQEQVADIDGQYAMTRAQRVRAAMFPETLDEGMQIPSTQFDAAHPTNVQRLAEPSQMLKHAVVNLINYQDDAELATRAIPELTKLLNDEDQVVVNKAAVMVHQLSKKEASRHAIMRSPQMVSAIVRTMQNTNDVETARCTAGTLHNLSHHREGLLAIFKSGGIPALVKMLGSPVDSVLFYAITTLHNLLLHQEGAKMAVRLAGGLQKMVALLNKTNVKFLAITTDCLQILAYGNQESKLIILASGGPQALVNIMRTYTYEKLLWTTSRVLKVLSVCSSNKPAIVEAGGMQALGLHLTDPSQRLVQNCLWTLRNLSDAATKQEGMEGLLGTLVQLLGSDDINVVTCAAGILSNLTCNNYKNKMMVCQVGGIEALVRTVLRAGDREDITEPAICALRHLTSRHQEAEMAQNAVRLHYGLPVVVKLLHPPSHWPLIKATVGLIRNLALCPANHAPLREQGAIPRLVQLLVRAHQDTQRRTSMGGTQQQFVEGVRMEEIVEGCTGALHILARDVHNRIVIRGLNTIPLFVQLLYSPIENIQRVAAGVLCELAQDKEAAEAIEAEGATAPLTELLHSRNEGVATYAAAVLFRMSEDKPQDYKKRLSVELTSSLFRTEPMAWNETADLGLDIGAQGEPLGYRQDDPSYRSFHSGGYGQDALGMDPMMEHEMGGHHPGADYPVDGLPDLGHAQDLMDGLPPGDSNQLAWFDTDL

[3] = Solubility in PBS; assay type: physicochemical
Procedure, shortened: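 Steps: ultracentrifuge the peptide PBS solution, inject the supernatant on HPLC, inject a 50 μM peptide DMSO solution as reference, then calculate solubility as area ratio (PBS/DMSO) × 50 uM.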

[4] = target: T2, beta-catenin/TCF4 engagement (Homo sapiens, UniProt P35222); assay: Nano-BRET target engagement assay (B-cat-Halo & TCF4-Luc in HEK293 cells); assay type: cell-based; settings: for inhibition at 10 µM: HEK293, @ 10 uM, read-out: NanoBRET % inh @ 10 uM
T2 construct: expressed in transfected cells; host or cells: HEK293
T2 sequence (P35222 1-781): T1 sequence (P35222 1-781)

Row | SMILES | chromatographic logD [1] | IC50 [2] | Solubility ([3]; Solubility (uM)) | inhibition at 10 µM [4] | IC50 ([4]; read-out: NanoBRET Abs IC50) | IC50 ([4]; read-out: NanoBRET IC50) | Solubility [3]
1 | CC(=O)N1CCC[C@]12CC=CCCCC1(CCCC=CCCCOC(=O)N3CC[C@@](C(=O)N[C@@H](Cc4ccsc4)C(=O)N[C@@H](Cc4csc5ccccc45)C(N)=O)(C3)NC(=O)[C@H](CC(N)=O)NC(=O)[C@H](Cc3ccccc3)NC(=O)[C@H](C)NC(=O)[C@H](C)NC(=O)[C@H](CC(=O)O)NC(=O)[C@H](CC(=O)O)NC1=O)NC(=O)[C@H](CC(C)(C)C)NC(=O)[C@H](CC(=O)O)NC2=O (stereo partly drawn) [I-785, Ac-PL3-Asp-Npg-B5-Asp-Asp-Ala-Ala-Phe-Asn-PyrS2-3Thi-BztA-NH2] | 2.28 | 6 nM | 42 µM (≈ 75.2 µg/mL) | 31% | 21600 nM |  | 
2 | CC(=O)N1CCC[C@]12CC=CCCCC1(CCCC=CCCCOC(=O)N3CC[C@@](C(=O)N[C@@H](Cc4ccsc4)C(=O)N[C@@H](Cc4csc5ccccc45)C(N)=O)(C3)NC(=O)[C@H](CC(N)=O)NC(=O)[C@H](Cc3ccccc3)NC(=O)[C@H](C)NC(=O)[C@H](C)NC(=O)[C@H](CCC(=O)O)NC(=O)[C@H](CC(=O)O)NC1=O)NC(=O)[C@H](CC(C)(C)C)NC(=O)[C@H](CC(=O)O)NC2=O (stereo partly drawn) [I-786, Ac-PL3-Asp-Npg-B5-Asp-Glu-Ala-Ala-Phe-Asn-PyrS2-3Thi-BztA-NH2] | 2.3 | 8 nM | 39 µM (≈ 70.4 µg/mL) |  | 29300 nM | 17100 nM | 
3 | CC(=O)N1CCC[C@]12CC=CCCCC1(CCCC=CCCCOC(=O)N3CC[C@@](C(=O)N[C@@H](Cc4ccsc4)C(=O)N[C@@H](Cc4cccc5ccccc45)C(=O)N[C@@H](Cc4c[nH]cn4)C(N)=O)(C3)NC(=O)[C@H](CC(N)=O)NC(=O)[C@H](Cc3ccccc3)NC(=O)[C@H](C)NC(=O)[C@H](C)NC(=O)[C@H](CC(=O)O)NC(=O)[C@H](CC(=O)O)NC1=O)NC(=O)[C@H](CC(C)(C)C)NC(=O)[C@H](CC(=O)O)NC2=O (stereo partly drawn) [I-789, Ac-PL3-Asp-Npg-B5-Asp-Asp-Ala-Ala-Phe-Asn-PyrS2-3Thi-1NapA-His-NH2] | 2.08 | 19 nM |  | 9.7% | > 20000 nM |  | 50 µM (≈ 96.1 µg/mL)
4 | CC(=O)N1CCC[C@]12CC=CCCCC1(CCCC=CCCCOC(=O)N3CC[C@@](C(=O)N[C@@H](Cc4ccsc4)C(=O)N[C@@H](Cc4ccc5ccccc5c4)C(=O)N[C@@H](Cc4c[nH]cn4)C(N)=O)(C3)NC(=O)[C@H](CC(N)=O)NC(=O)[C@H](Cc3ccccc3)NC(=O)[C@H](C)NC(=O)[C@H](C)NC(=O)[C@H](CC(=O)O)NC(=O)[C@H](CC(=O)O)NC1=O)NC(=O)[C@H](CC(C)(C)C)NC(=O)[C@H](CC(=O)O)NC2=O (stereo partly drawn) [I-790, Ac-PL3-Asp-Npg-B5-Asp-Asp-Ala-Ala-Phe-Asn-PyrS2-3Thi-2NapA-His-NH2] | 2.12 | 24 nM |  |  | > 20000 nM |  | 50 µM (≈ 96.1 µg/mL)
5 | CC(=O)N1CCC[C@]12CC=CCCCC1(CCCC=CCCCOC(=O)N3CC[C@@](C(=O)N[C@@H](Cc4ccsc4)C(=O)N[C@@H](Cc4c[nH]c5ccccc45)C(=O)N[C@@H](Cc4c[nH]cn4)C(N)=O)(C3)NC(=O)[C@H](CC(N)=O)NC(=O)[C@H](Cc3ccccc3)NC(=O)[C@H](C)NC(=O)[C@H](C)NC(=O)[C@H](CC(=O)O)NC(=O)[C@H](CC(=O)O)NC1=O)NC(=O)[C@H](CC(C)(C)C)NC(=O)[C@H](CC(=O)O)NC2=O (stereo partly drawn) [I-792, Ac-PL3-Asp-Npg-B5-Asp-Asp-Ala-Ala-Phe-Asn-PyrS2-3Thi-Trp-His-NH2] | 1.96 | 20 nM | 33 µM (≈ 63 µg/mL) |  | > 20000 nM |  | 
6 | CC(=O)N1CCC[C@]12CC=CCCCC1(CCCC=CCCCOC(=O)N3CC[C@@](C(=O)N[C@@H](Cc4csc5ccccc45)C(=O)N[C@@H](Cc4csc5ccccc45)C(=O)N[C@@H](Cc4c[nH]cn4)C(N)=O)(C3)NC(=O)[C@H](CC(N)=O)NC(=O)[C@H](Cc3ccccc3)NC(=O)[C@H](C)NC(=O)[C@H](C)NC(=O)[C@H](CC(=O)O)NC(=O)[C@H](CC(=O)O)NC1=O)NC(=O)[C@H](CC(C)(C)C)NC(=O)[C@H](CC(=O)O)NC2=O (stereo partly drawn) [I-793, Ac-PL3-Asp-Npg-B5-Asp-Asp-Ala-Ala-Phe-Asn-PyrS2-BztA-BztA-His-NH2] | 2.39 | 14 nM |  |  | > 20000 nM |  | 10 µM (≈ 19.8 µg/mL)
7 | CC(=O)N1CCC[C@]12CC=CCCCC1(CCCC=CCCCOC(=O)N3CC[C@@](C(=O)N[C@@H](Cc4cccc5ccccc45)C(=O)N[C@@H](Cc4csc5ccccc45)C(=O)N[C@@H](Cc4c[nH]cn4)C(N)=O)(C3)NC(=O)[C@H](CC(N)=O)NC(=O)[C@H](Cc3ccccc3)NC(=O)[C@H](C)NC(=O)[C@H](C)NC(=O)[C@H](CC(=O)O)NC(=O)[C@H](CC(=O)O)NC1=O)NC(=O)[C@H](CC(C)(C)C)NC(=O)[C@H](CC(=O)O)NC2=O (stereo partly drawn) [I-794, Ac-PL3-Asp-Npg-B5-Asp-Asp-Ala-Ala-Phe-Asn-PyrS2-1NapA-BztA-His-NH2] | 2.38 | 19 nM | 40 µM (≈ 78.8 µg/mL) |  | 26400 nM |  | 
8 | CC(=O)N1CCC[C@]12CC=CCCCC1(CCCC=CCCCOC(=O)N3CC[C@@](C(=O)N[C@@H](Cc4ccsc4)C(=O)N[C@@H](Cc4csc5ccccc45)C(=O)N[C@@H](Cc4c[nH]cn4)C(N)=O)(C3)NC(=O)[C@H](CC(C)C)NC(=O)[C@H](Cc3ccccc3)NC(=O)[C@H](C)NC(=O)[C@H](C)NC(=O)[C@H](CC(=O)O)NC(=O)[C@H](CC(=O)O)NC1=O)NC(=O)[C@H](CC(C)(C)C)NC(=O)[C@H](CC(=O)O)NC2=O (stereo partly drawn) [I-802, Ac-PL3-Asp-Npg-B5-Asp-Asp-Ala-Ala-Phe-Leu-PyrS2-3Thi-BztA-His-NH2] | 2.3 | 6 nM |  |  | 4800 nM |  | 10 µM (≈ 19.3 µg/mL)

Molecules with a lower IC50 [2], results first:

Row | chromatographic logD [1] | IC50 [2] | Solubility ([3]; Solubility (uM)) | inhibition at 10 µM [4] | IC50 ([4]; read-out: NanoBRET Abs IC50) | IC50 ([4]; read-out: NanoBRET IC50) | Solubility [3] | SMILES
9 | 2.17 | 5 nM | 31 µM (≈ 59.7 µg/mL) |  | 21600 nM |  |  | CC(=O)N1CCC[C@]12CC=CCCCC1(CCCC=CCCCOC(=O)N3CC[C@@](C(=O)N[C@@H](Cc4ccsc4)C(=O)N[C@@H](Cc4csc5ccccc45)C(=O)N[C@@H](Cc4c[nH]cn4)C(N)=O)(C3)NC(=O)[C@H](CC(N)=O)NC(=O)[C@H](Cc3ccccc3)NC(=O)[C@H](C)NC(=O)[C@H](C)NC(=O)[C@H](CC(=O)O)NC(=O)[C@H](CC(=O)O)NC1=O)NC(=O)[C@H](CCC(C)C)NC(=O)[C@H](CC(=O)O)NC2=O (stereo partly drawn) [I-788, Ac-PL3-Asp-hLeu-B5-Asp-Asp-Ala-Ala-Phe-Asn-PyrS2-3Thi-BztA-His-NH2]
10 | 2.11 | 5 nM | 44 µM (≈ 84.2 µg/mL) |  | 13500 nM |  |  | CC(=O)N1CCC[C@]12CC=CCCCC1(CCCC=CCCCOC(=O)N3CC[C@@](C(=O)N[C@@H](Cc4ccsc4)C(=O)N[C@@H](Cc4csc5ccccc45)C(=O)N[C@@H](Cc4c[nH]cn4)C(N)=O)(C3)NC(=O)[C@H](CCO)NC(=O)[C@H](Cc3ccccc3)NC(=O)[C@H](C)NC(=O)[C@H](C)NC(=O)[C@H](CC(=O)O)NC(=O)[C@H](CC(=O)O)NC1=O)NC(=O)[C@H](CC(C)(C)C)NC(=O)[C@H](CC(=O)O)NC2=O (stereo partly drawn) [I-804, Ac-PL3-Asp-Npg-B5-Asp-Asp-Ala-Ala-Phe-Hse-PyrS2-3Thi-BztA-His-NH2]
11 | 1.98 | 5 nM |  |  | 18500 nM |  | 50 µM (≈ 98.1 µg/mL) | CC(=O)N1CCC[C@]12CC=CCCCC1(CCCC=CCCCOC(=O)N3CC[C@@](C(=O)N[C@@H](Cc4ccsc4)C(=O)N[C@@H](Cc4csc5ccccc45)C(=O)N[C@@H](CCC(N)=O)C(N)=O)(C3)NC(=O)[C@H](CCCNC(N)=O)NC(=O)[C@H](Cc3ccccc3)NC(=O)[C@H](C)NC(=O)[C@H](C)NC(=O)[C@H](CC(=O)O)NC(=O)[C@H](CC(=O)O)NC1=O)NC(=O)[C@H](CC(C)(C)C)NC(=O)[C@H](CC(=O)O)NC2=O (stereo partly drawn) [I-805, Ac-PL3-Asp-Npg-B5-Asp-Asp-Ala-Ala-Phe-Cit-PyrS2-3Thi-BztA-Gln-NH2]
12 | 2.04 | 5 nM | 37 µM (≈ 72.9 µg/mL) |  | 21600 nM |  |  | CC(=O)N1CCC[C@]12CC=CCCCC1(CCCC=CCCCOC(=O)N3CC[C@@](C(=O)N[C@@H](Cc4ccsc4)C(=O)N[C@@H](Cc4csc5ccccc45)C(=O)N[C@@H](Cc4c[nH]cn4)C(N)=O)(C3)NC(=O)[C@H](CCCNC(N)=O)NC(=O)[C@H](Cc3ccccc3)NC(=O)[C@H](C)NC(=O)[C@H](C)NC(=O)[C@H](CC(=O)O)NC(=O)[C@H](CC(=O)O)NC1=O)NC(=O)[C@H](CC(C)(C)C)NC(=O)[C@H](CC(=O)O)NC2=O (stereo partly drawn) [I-806, Ac-PL3-Asp-Npg-B5-Asp-Asp-Ala-Ala-Phe-Cit-PyrS2-3Thi-BztA-His-NH2]
